Source: patent US11529353B2, “Pharmaceutical composition comprising Palbociclib” (Synthon B.V., priority 2017, dated 2022)

Key:
[1] = Specific surface area by BET-nitrogen adsorption analysis; format: physicochemical
Method: The specific surface area (SSA) is assessed with a Quantachrome NOVA touch 2LX. The N2 is used as measuring gas and BET method is used to evaluate SSA. The following setup has been used for the measurement: • Adsorbate: Nitrogen • Sample cell: 9 mm large bulb cell, long; Measurement is performed with the corresponding filler rod • Sample masses*: approximately ¾ of cell bulb • Degassing conditions: 960 min at 30° C. under vacuum (ramping 10° C./min) • Measured points of isotherm: 11 equidistant points in the range 0.05-0.30 p/p0** • Points analyzed using BET: 7equidistant points from whole range 0.05-0.20 p/p0 • Use data reduction adsorbate model: Yes (N2) • Bath thermal delay: at least 600 s • P0 Option: continuous (measured each 30 minutes) • Void volume mode: Helium measure • Equilibration time: 160 s • Equilibration timeout: 2400 s • Tolerance: 0.05 • * Used amount of sample depends on its SSA and other physical parameters. The real surface area of sample in measuring cell should be between 1 m^2/g and 20 m^2/g. • ** Points above or below this range can be measured.

[2] = Particle size distribution by LASER diffraction (Malvern Mastersizer 2000); format: physicochemical
Method: The particle size distribution (PSD) is determined with LASER diffraction analyzer Malvern Mastersizer 2000 which operates in size ranges from 0.02 μm to 2,000 μm. The wet dispersion is prepared from dry powder sample and added to the dispersion unit. Gained raw data are computed by software to PSD with the use of Mie theory. This method is based on Ph. Eur. Method 2.9.31 and USP <429>.

[3] = cited from earlier work

For `CC(=O)c1c(C)c2cnc(Nc3ccc(N4CCNCC4)cn3)nc2n(C2CCCC2)c1=O` [Palbociclib], the surface area [1] is listed as 6.9 m^2/g, the D90 [2] is listed as 11.5 μm and the solubility ([3]; above pH 4) is listed as “reduces significantly”. The solubility in water ([3]; at or below pH 4) was “high-solubility compound”.
